Data taken from BindingDB's records for doi:10.1016/j.ejmech.2014.09.039 (2014).

Biological target: Neuronal acetylcholine receptor subunit alpha-7 (Homo sapiens, UniProt P36544)
Assay: Positive allosteric modulation at human alpha7 nACHR expressed in Xenopus oocyte assessed as potentiation of ACh-induced current at holding potential of -80 mV measured as ACh EC50 at 1 uM by electrophysiology (Rvb = 176 uM)

Neuronal acetylcholine receptor subunit alpha-7, sequence (P36544 whole entry): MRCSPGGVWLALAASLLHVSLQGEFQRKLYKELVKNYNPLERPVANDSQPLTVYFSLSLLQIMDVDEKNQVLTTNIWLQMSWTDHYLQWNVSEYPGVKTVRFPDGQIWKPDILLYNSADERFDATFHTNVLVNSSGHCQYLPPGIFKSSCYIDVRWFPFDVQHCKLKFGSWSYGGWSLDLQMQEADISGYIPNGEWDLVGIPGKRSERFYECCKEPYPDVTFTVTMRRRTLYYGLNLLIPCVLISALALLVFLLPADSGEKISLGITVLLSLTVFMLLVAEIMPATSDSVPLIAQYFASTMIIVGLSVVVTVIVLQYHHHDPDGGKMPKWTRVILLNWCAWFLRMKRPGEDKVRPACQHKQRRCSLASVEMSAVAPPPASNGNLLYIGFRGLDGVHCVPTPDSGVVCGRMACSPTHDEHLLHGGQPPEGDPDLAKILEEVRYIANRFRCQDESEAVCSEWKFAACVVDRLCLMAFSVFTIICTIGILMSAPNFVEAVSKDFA

| Structure (SMILES) | EC50 [µM] |
| --- | --- |
| O=C(/C=C/c1ccc(O)cc1)c1cc(O)ccc1O | 56 |
| O=C(/C=C/c1ccc(O)cc1O)c1cc(O)ccc1O | 125 |
